This is an account of results in patent US6391917B1, “Dialkyl ureas as calcitonin mimetics” (ZymoGenetics, Inc., priority 1998, dated 2002).

The target in assay [1] is T1, human PTH receptor (Homo sapiens, UniProt Q03431).
T1 construct: expressed in transfected cells; host or cells: BHK570 clone KZ10-20-48 (KZ10-20-48/PTH-20)
T1 sequence (Q03431 27-593): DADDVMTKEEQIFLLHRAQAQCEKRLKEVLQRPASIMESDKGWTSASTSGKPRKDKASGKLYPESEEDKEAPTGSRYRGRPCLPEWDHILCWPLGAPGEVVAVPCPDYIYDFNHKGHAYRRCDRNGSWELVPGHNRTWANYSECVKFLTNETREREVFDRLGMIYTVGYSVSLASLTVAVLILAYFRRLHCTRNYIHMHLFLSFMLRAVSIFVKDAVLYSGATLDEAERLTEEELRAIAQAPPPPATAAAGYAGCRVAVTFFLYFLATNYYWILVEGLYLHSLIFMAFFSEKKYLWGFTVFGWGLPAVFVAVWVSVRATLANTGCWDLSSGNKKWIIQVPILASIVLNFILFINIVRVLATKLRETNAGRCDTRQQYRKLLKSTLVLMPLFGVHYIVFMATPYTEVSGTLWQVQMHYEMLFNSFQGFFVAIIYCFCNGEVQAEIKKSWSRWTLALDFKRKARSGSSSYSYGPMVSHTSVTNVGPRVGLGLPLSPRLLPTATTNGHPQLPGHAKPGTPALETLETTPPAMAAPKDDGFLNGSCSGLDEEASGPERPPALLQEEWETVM
Briefly: CRE-luciferase induction in clone KZ10-20-48/PTH-20. It is filed as cell-based. The source says:
Test substances that appear to specifically elevate luciferase expression in CT-R positive cells but not CT-R negative cells were subjected to an additional specificity check, i.e. their inability to activate other members of the G-protein coupled receptor family. The parathyroid hormone (PTH) receptor is another member of the G-protein coupled receptor family that transduces signal through adenylate cyclase mediated elevation of cAMP.

Assay [2] is described as follows: Induction of hypocalcemia in rats. It is filed as in vivo. Particulars: weanling rats, tail vein, 0.5, 2.5, 5, 50 and 100 ng/rat, serum calcium one hour later. On the procedure: This assay is based on the in vivo acute effect of calcitonin on osteoclasts, which causes rapid retraction of osteoclasts from bone surface (typically within 30 minutes) and which results in decreased bone resorption. See Mills, et al., in Endocrinology 1971—Proceedings of the Third International SymDosium, Taylor (ed), Heinemann Medical, London, pp. 79-88 (1972) and Singer, et al., Clin. Endocrinol. 5(Supp):333s-40s, 1976. The assay method was modified from the method described by Sturtridge and Kumar, Lancet 545:725-6, 1968. For the assay of hypocalcemic activity, weanling male Holtzman Sprague-Dawley rats (22 days old) are infused with vehicle (PBS with 1 mM HCl and 0.1% BSA), calcitonin or calcitonin mimetics through the tail vein. One hour later, blood samples are collected by orbital sinus puncture to determine serum levels of calcium. A decrease in serum calcium indicates a hypocalcemic response. The hypocalcemic response is dose-dependent as determined using salmon calcitonin (0.5, 2.5, 5, 50 and 100 ng/rat) in this model. Inhibition of PTH-induced hypercalcemia in TPTX rats

As to `C=C[C@@]1(C)CC(=O)[C@]2(O)[C@@]3(C)[C@@H](O)CCC(C)(C)[C@@H]3[C@H](O)[C@H](OC(C)=O)[C@@]2(C)O1` [forskolin], the response in assay [1] was half-maximal at 2000 nM (EC50). This counts as single-digit micromolar.
As to salmon calcitonin, the hypocalcemic response entry in assay [2] is recorded as “dose-dependent”.
